Measurements: PubChem BioAssay (NCI)
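Five compound concentrations were applied to cells in 96-well plates for 48 hours; endpoints were derived by simple linear interpolation of the resulting dose-response curve. Here, GI50 denotes the concentration required for 50% inhibition of growth. TGI: concentration producing complete growth inhibition.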

Legend:
Test in all cases: inhibition of tumour cell growth, NCI panel, 48 h
[1] = tested on: SK-MEL-2 melanoma
[2] = tested on: SK-MEL-5 melanoma
[3] = tested on: A498 renal
[4] = tested on: OVCAR-4 ovarian
[5] = tested on: HT29 colon
[6] = tested on: SNB-75 CNS
[7] = tested on: SN12C renal
[8] = tested on: SNB-19 CNS
[9] = tested on: MDA-MB-435
[10] = tested on: PC-3 prostate

Compound	TGI [1] [µM]	TGI [2] [µM]	TGI [3] [µM]	TGI [4] [µM]	TGI [5] [µM]	TGI [6] [µM]	TGI [7] [µM]	TGI [8] [µM]	GI50 [1] [µM]	GI50 [2] [µM]	GI50 [4] [µM]	GI50 [9] [µM]	TGI [9] [µM]	GI50 [5] [µM]	GI50 [6] [µM]	GI50 [10] [µM]	TGI [10] [µM]	GI50 [7] [µM]	GI50 [8] [µM]	GI50 [3] [µM]
CC(C)Cc1ccc(C(C)/C=C2\CCC(CN3CCCC3)C2=O)cc1 (configuration not stated)	31.8	28	36.5	27.1	23.2	30	13.3	26.4												
O=C(NC1CCN(Cc2ccccc2)CC1)c1cc(C(=O)NC2CCN(Cc3ccccc3)CC2)cc(C(=O)NC2CCN(Cc3ccccc3)CC2)c1	16.9	16.9		10.2	4.17	7.42	> 50	17.6	9.02	7.9	2.43	0.923	1.85	1.3	1.48	7.73	19.5	15.6	8.61	
C/C=C1\C(=O)O[C@@H]2C1C[C@@H]1O[C@H]2[C@H](C)CCC/C(C)=C/CC[C@@]1(C)O (some centres not stated)	13.2	9.4			> 100	33.4	13	40.6	3.66	3.03		6.67	22.9	25.4	9.81	11.8	25.8	3.54	19.4	
c1ccc2c(c1)nnn2CNc1ccc(N2CCOCC2)cc1	> 100		> 100	> 100	> 100	> 100	> 100	> 100												
Cc1[nH]c2ccccc2c1C1CC(=O)NC1=O (configuration not stated)	> 100	> 100	> 100	> 100		> 100														
C[C@@H](Oc1cc(NS(=O)(=O)N2CCC2)nc(SCc2cccc(F)c2F)n1)[C@@H](O)CO	> 100	> 100		> 100	> 100	> 100	> 100	> 100	> 100	> 100	> 100	> 100	> 100	> 100	> 100	> 100	> 100	> 100	> 100	
N#Cc1ccc(-c2nc3ccc(Cl)cc3[nH]2)cc1	> 100	> 100			> 100	> 100	> 100	> 100									> 100			
S=P(c1ccccc1)(c1ccccc1)C1(C2(P(=S)(c3ccccc3)c3ccccc3)CC2)CC1	> 100	> 100		> 100	> 100	> 100	> 100	> 100												
O=C1NC(=O)C(=O)C(c2nc3ccccc3s2)C1=O	> 100	> 100	> 100	> 100	> 100	> 100	> 100	> 100												
CCC(O)(c1ccc(OC)cc1)C(c1ccc(OCc2ccccc2)cc1)c1ccc(OCc2ccccc2)cc1 (configuration not stated)	> 100	> 100	> 100	> 100	> 100	> 100	> 100	> 100												
CC(Oc1ccc(OCC2CCCCC2)cc1)C(=O)O (configuration not stated)	> 100	> 100		> 100	> 100	> 100	> 100													
O=C(N/C(=C\c1ccc([N+](=O)[O-])cc1)c1nc2ccc(Cl)cc2[nH]1)c1ccccc1	48.1	33.7		60.8	43.9		41.9	> 100												
NC1=NC(c2ccccc2)CC(c2cc(Cl)cc(Br)c2O)=N1 (configuration not stated)	18.6	25	35.7	41.9	27	28.3	30.3	33.3												
CCOC(=O)/C(C#N)=C\C=C1/C=CNC2=NCCN21	> 100	> 100		> 100	> 100	> 100	> 100	> 100												
Cc1ccc(C(=O)CCC2C(=O)CC(C)(C)CC2=O)cc1	> 100	> 100		> 100	> 100	> 100	> 100	> 100					> 100				> 100			
O=C(Nc1ccc(Cl)cc1)c1cc2cc(F)ccc2cc1O	2.74	1.52	2.74	8.99	40		> 100	> 100	0.672	0.417	2.56	1.96	8.8	3.67		1.94	> 100	1.78	2.2	0.553
CC(=O)O[C@H]1CCC2[C@@H]3CCC4Nc5c(cnn5-c5ccccc5)C[C@]4(C)C3CC[C@@]21C (some centres not stated)	35.8	22	> 100	71.3	34.9	20.2	41.4	41.9												
O=C(COc1ccc(Cl)cc1)N1N=C(c2ccc([N+](=O)[O-])o2)CC1(O)c1ccccc1 (configuration not stated)	21			26.7	16.3		15.8	25.8												
NCCCn1c2c(c3cc4c(cc3c1=O)OCO4)C(=O)c1ccccc1-2	> 70.3	0.656		0.721	> 100		2.49	> 100	2.91	0.215	0.199	0.567	1.42	0.0575		0.134	0.6	0.975	4.19	
C[C@@H](NC1CCC[C@@H]1O)c1ccccc1 (some centres not stated)	> 100	> 100		> 100	> 100	> 100	> 100	> 100												
COC1OC(CBr)C(OC(c2ccccc2)(c2ccccc2)c2ccccc2)C(OC(c2ccccc2)(c2ccccc2)c2ccccc2)C1OC(c1ccccc1)(c1ccccc1)c1ccccc1 (configuration not stated)		> 100	> 100	60.8	> 100		> 100	> 100					> 100							
CC1=C(/C=C/C2=CC(=C\C(=O)O)/CC(C3=C(C)CCCC3(C)C)C2)C(C)(C)CCC1 (configuration not stated)	23.5	28	28.7	28.1	28.6	28.8	32.3	27.7												
